Laboratory results reported in US10732173B2, “Use of aldehyde dehydrogenase as biomarker for beta-cell dysfunction and loss” (THE TRUSTEES OF COLUMBIA UNIVERSITY IN THE CITY OF NEW YORK, priority 2015, dated 2020).

Test system: MIN6 cells overexpressing ALDH1A3
Assay: Glucose-stimulated insulin secretion in the presence of the ALDH inhibitor DEAB
Format: cell-based, mouse
Conditions: MIN6 cells overexpressing ALDH1A3, in the presence of DEAB (FIG. 12F)

CCN(CC)c1ccc(C=O)cc1 [DEAB, N,N-diethylaminobenzaldehyde]
effect on insulin secretion: did not detect an effect
